{"source": "patent US12285520B2", "about": "“Product and manufacturing process for a gum” (McNeil AB, priority 2020, dated 2025)", "origin": "cited, not measured here", "conditions": "nicotine; stated as general knowledge, no experiment described"}
{"smiles": "CN1CCCC1c1cccnc1", "note": "(stereo not shown) [nicotine]", "values": [{"measurement": "pKa", "result": "approximately 7.8"}]}
